Source: patent EP0049968A1, “Pharmaceutical compositions” (priority 1980, dated 1982)
Where two headings read alike, the source gives them in different places.

Assays:
[1] = tested on: highly resistant strains of Pseudomonas aeruginosa (producing both a plasmid-and chromosomally-mediated β-lactamase); assay: MIC of compound (i) alone and in combination with compound (iii), Pseudomonas aeruginosa strains; type: cell-based; details: for MIC µg/ml compound (i) compound (iii) (µg/ml) 2: with compound (iii) 2 µg/ml; for MIC µg/ml compound (i) compound (iii) (µg/ml) 5: with compound (iii) 5 µg/ml; for MIC µg/ml compound (i) compound (iii) (µg/ml) 10: with compound (iii) 10 µg/ml
[2] = tested on: highly resistant E.coli strains (producing a plasmid mediated β-lactamase); assay: MIC of compound (i) alone and in combination with compound (iii), E. coli strains; type: cell-based; details: for MIC: Escherichia coli, compound (i) alone

CC1(C)S[C@@H]2[C@H](NC(=O)[C@H](NC(=O)Nc3cnc(Nc4ccc(S(N)(=O)=O)cc4)nc3O)c3ccc(O)cc3)C(=O)N2[C@H]1C(=O)O [compound (i)]
MIC µg/ml compound (i) compound (iii) (µg/ml) 2 ([1]; strain Horton): 10 µg/mL
MIC µg/ml compound (i) compound (iii) (µg/ml) 5 ([1]; strain Horton): 10 µg/mL
MIC µg/ml compound (i) compound (iii) (µg/ml) 10 ([1]; strain Horton): 20 µg/mL
MIC µg/ml compound (i) alone ([1]; strain P22, compound (i) alone): >160 µg/mL
MIC µg/ml compound (i) compound (iii) (µg/ml) 1 ([1]; strain P22, with compound (iii) 1 µg/ml): 10 µg/mL
MIC µg/ml compound (i) compound (iii) (µg/ml) 2 ([1]; strain P22): 5 µg/mL
MIC µg/ml compound (i) compound (iii) (µg/ml) 5 ([1]; strain P22): 5 µg/mL
MIC µg/ml compound (i) compound (iii) (µg/ml) 10 ([1]; strain P22): 5 µg/mL
MIC ([2]; read-out: MIC µg/ml compound (i) alone, Geometric mean (± 95% confidence limits), geometric mean of 11 E. coli strains): > 160 µg/mL
MIC ([2]; read-out: MIC µg/ml compound (i) alone, strain E96): > 160 µg/mL
MIC ([2]; read-out: MIC µg/ml compound (i) alone, strain E110): > 160 µg/mL
MIC ([2]; read-out: MIC µg/ml compound (i) alone, strain E121): > 161 µg/mL
MIC ([2]; read-out: MIC µg/ml compound (i) alone, strain E124): > 160 µg/mL
MIC ([2]; read-out: MIC µg/ml compound (i) alone, strain JT4): > 160 µg/mL
MIC ([2]; read-out: MIC µg/ml compound (i) alone, strain JT9): > 160 µg/mL
MIC ([2]; read-out: MIC µg/ml compound (i) alone, strain JT39): 160 µg/mL
MIC ([2]; read-out: MIC µg/ml compound (i) alone, strain JT68): > 160 µg/mL
MIC ([2]; read-out: MIC µg/ml compound (i) alone, strain P9): > 160 µg/mL
MIC ([2]; read-out: MIC µg/ml compound (i) alone, strain P19): > 160 µg/mL
MIC ([2]; read-out: MIC µg/ml compound (i) alone, strain SA15): > 160 µg/mL
MIC µg/ml compound (i) compound (iii) (µg/ml) 1, Geometric mean (± 95% confidence limits) ([2]; geometric mean of 11 E. coli strains, with compound (iii) 1 µg/ml): 0.80 (0.16-4.1) µg/ml
MIC µg/ml compound (i) compound (iii) (µg/ml) 2, Geometric mean (± 95% confidence limits) ([2]; geometric mean of 11 E. coli strains, with compound (iii) 2 µg/ml): 0.59 (0.15-2.2) µg/ml
MIC µg/ml compound (i) compound (iii) (µg/ml) 5, Geometric mean (± 95% confidence limits) ([2]; geometric mean of 11 E. coli strains, with compound (iii) 5 µg/ml): 0.19 (0.07-0.53) µg/ml
MIC µg/ml compound (i) compound (iii) (µg/ml) 10, Geometric mean (± 95% confidence limits) ([2]; geometric mean of 11 E. coli strains, with compound (iii) 10 µg/ml): 0.08 (0.02-0.30) µg/ml
MIC µg/ml compound (i) compound (iii) (µg/ml) 1 ([2]; strain E96, with compound (iii) 1 µg/ml): 0.62 µg/mL
MIC µg/ml compound (i) compound (iii) (µg/ml) 2 ([2]; strain E96, with compound (iii) 2 µg/ml): 0.62 µg/mL
MIC µg/ml compound (i) compound (iii) (µg/ml) 5 ([2]; strain E96, with compound (iii) 5 µg/ml): 0.31 µg/mL
MIC µg/ml compound (i) compound (iii) (µg/ml) 10 ([2]; strain E96, with compound (iii) 10 µg/ml): 0.31 µg/mL
MIC µg/ml compound (i) compound (iii) (µg/ml) 1 ([2]; strain E110, with compound (iii) 1 µg/ml): 0.16 µg/mL
MIC µg/ml compound (i) compound (iii) (µg/ml) 2 ([2]; strain E110, with compound (iii) 2 µg/ml): 0.16 µg/mL
MIC µg/ml compound (i) compound (iii) (µg/ml) 5 ([2]; strain E110, with compound (iii) 5 µg/ml): 0.08 µg/mL
MIC µg/ml compound (i) compound (iii) (µg/ml) 10 ([2]; strain E110, with compound (iii) 10 µg/ml): 0.02 µg/mL
MIC µg/ml compound (i) compound (iii) (µg/ml) 1 ([2]; strain E121, with compound (iii) 1 µg/ml): 0.62 µg/mL
MIC µg/ml compound (i) compound (iii) (µg/ml) 2 ([2]; strain E121, with compound (iii) 2 µg/ml): 0.31 µg/mL
MIC µg/ml compound (i) compound (iii) (µg/ml) 5 ([2]; strain E121, with compound (iii) 5 µg/ml): 0.16 µg/mL
MIC µg/ml compound (i) compound (iii) (µg/ml) 10 ([2]; strain E121, with compound (iii) 10 µg/ml): 0.08 µg/mL
MIC µg/ml compound (i) compound (iii) (µg/ml) 1 ([2]; strain E124, with compound (iii) 1 µg/ml): 1.25 µg/mL
MIC µg/ml compound (i) compound (iii) (µg/ml) 2 ([2]; strain E124, with compound (iii) 2 µg/ml): 0.62 µg/mL
MIC µg/ml compound (i) compound (iii) (µg/ml) 5 ([2]; strain E124, with compound (iii) 5 µg/ml): 0.31 µg/mL
MIC µg/ml compound (i) compound (iii) (µg/ml) 10 ([2]; strain E124, with compound (iii) 10 µg/ml): 0.16 µg/mL
MIC µg/ml compound (i) compound (iii) (µg/ml) 1 ([2]; strain JT4, with compound (iii) 1 µg/ml): 40 µg/mL
MIC µg/ml compound (i) compound (iii) (µg/ml) 2 ([2]; strain JT4, with compound (iii) 2 µg/ml): 20 µg/mL
MIC µg/ml compound (i) compound (iii) (µg/ml) 5 ([2]; strain JT4, with compound (iii) 5 µg/ml): 2.5 µg/mL
MIC µg/ml compound (i) compound (iii) (µg/ml) 10 ([2]; strain JT4, with compound (iii) 10 µg/ml): 1.25 µg/mL
MIC µg/ml compound (i) compound (iii) (µg/ml) 1 ([2]; strain JT9, with compound (iii) 1 µg/ml): 1.25 µg/mL
MIC µg/ml compound (i) compound (iii) (µg/ml) 2 ([2]; strain JT9, with compound (iii) 2 µg/ml): 0.62 µg/mL
MIC µg/ml compound (i) compound (iii) (µg/ml) 5 ([2]; strain JT9, with compound (iii) 5 µg/ml): 0.08 µg/mL
MIC µg/ml compound (i) compound (iii) (µg/ml) 10 ([2]; strain JT9, with compound (iii) 10 µg/ml): 0.08 µg/mL
MIC µg/ml compound (i) compound (iii) (µg/ml) 1 ([2]; strain JT39, with compound (iii) 1 µg/ml): 0.16 µg/mL
MIC µg/ml compound (i) compound (iii) (µg/ml) 2 ([2]; strain JT39, with compound (iii) 2 µg/ml): 0.16 µg/mL
MIC µg/ml compound (i) compound (iii) (µg/ml) 5 ([2]; strain JT39, with compound (iii) 5 µg/ml): 0.08 µg/mL
MIC µg/ml compound (i) compound (iii) (µg/ml) 10 ([2]; strain JT39, with compound (iii) 10 µg/ml): 0.02 µg/mL
MIC µg/ml compound (i) compound (iii) (µg/ml) 1 ([2]; strain JT68, with compound (iii) 1 µg/ml): 0.16 µg/mL
MIC µg/ml compound (i) compound (iii) (µg/ml) 2 ([2]; strain JT68, with compound (iii) 2 µg/ml): 0.31 µg/mL
MIC µg/ml compound (i) compound (iii) (µg/ml) 5 ([2]; strain JT68, with compound (iii) 5 µg/ml): 0.16 µg/mL
MIC µg/ml compound (i) compound (iii) (µg/ml) 10 ([2]; strain JT68, with compound (iii) 10 µg/ml): 0.08 µg/mL
MIC µg/ml compound (i) compound (iii) (µg/ml) 1 ([2]; strain P9, with compound (iii) 1 µg/ml): 1.25 µg/mL
MIC µg/ml compound (i) compound (iii) (µg/ml) 2 ([2]; strain P9, with compound (iii) 2 µg/ml): 0.62 µg/mL
MIC µg/ml compound (i) compound (iii) (µg/ml) 5 ([2]; strain P9, with compound (iii) 5 µg/ml): 0.16 µg/mL
MIC µg/ml compound (i) compound (iii) (µg/ml) 10 ([2]; strain P9, with compound (iii) 10 µg/ml): 0.08 µg/mL
MIC µg/ml compound (i) compound (iii) (µg/ml) 1 ([2]; strain P19, with compound (iii) 1 µg/ml): 0.31 µg/mL
MIC µg/ml compound (i) compound (iii) (µg/ml) 2 ([2]; strain P19, with compound (iii) 2 µg/ml): 0.31 µg/mL
MIC µg/ml compound (i) compound (iii) (µg/ml) 5 ([2]; strain P19, with compound (iii) 5 µg/ml): 0.08 µg/mL
MIC µg/ml compound (i) compound (iii) (µg/ml) 10 ([2]; strain P19, with compound (iii) 10 µg/ml): 0.02 µg/mL
MIC µg/ml compound (i) compound (iii) (µg/ml) 1 ([2]; strain SA15, with compound (iii) 1 µg/ml): 2.5 µg/mL
MIC µg/ml compound (i) compound (iii) (µg/ml) 2 ([2]; strain SA15, with compound (iii) 2 µg/ml): 1.25 µg/mL
MIC µg/ml compound (i) compound (iii) (µg/ml) 5 ([2]; strain SA15, with compound (iii) 5 µg/ml): 0.31 µg/mL
MIC µg/ml compound (i) compound (iii) (µg/ml) 10 ([2]; strain SA15, with compound (iii) 10 µg/ml): 0.08 µg/mL
